“Also recorded” adds a separate entry of the source. Where two headings read alike, the source gives them in different places.
How the values were obtained:
[1] = at 90% RH, 25° C.; listed as salt from diethylamine
[2] = slurried in deionised water, ambient temperature, ca. 24 hrs
[3] = H2O/acetone, ca. 12 hrs
[4] = Forced degradation studies (Example 7)
[5] = Hydrolytic (humidity), 55° C./75% RH, solid state, 8 days
[6] = Hydrolytic (humidity), 55° C./75% RH, solid state, 14 days
[7] = Hydrolytic, Acid, 1N HCl, 55° C., 8 days
[8] = Hydrolytic, Acid, 1N HCl, 55° C., 14 days
[9] = Hydrolytic, Base, 1N NaOH, 55° C., 8 days
[10] = Hydrolytic, Base, 1N NaOH, 55° C., 14 days
[11] = Oxidative, 3% H2O2, ambient temperature, 8 days
[12] = Photolytic Control (dark control in photochamber), 2X ICH
[13] = Photolytic Control (dark control in photochamber), 3X ICH
[14] = Photolytic, photochamber 25° C., solid state, 2X ICH
[15] = Photolytic, photochamber 25° C., solid state, 3X ICH
[16] = Solution Control (water, 55° C.), 8 days
[17] = Solution Control (water, 55° C.), 14 days
[18] = Solution Control (water, ambient), 8 days
[19] = Solution Control (water, ambient), 14 days
[20] = Thermolytic, 85° C., ambient humidity, solid state, 8 days
[21] = Thermolytic, 85° C., ambient humidity, solid state, 14 days

sulfasalazine diethylamine (1:1) salt [Diethylamine Salt]
DVS mass uptake [1]: 1.0% | Salt disproportionation, XRPD [2]: Small change | Hydration studies, XRPD ([3]; High water activity (0.790)): no solid could be obtained | Hydration studies, XRPD ([3]; Low water activity (0.281)): slight changes; also recorded: Small change | Hydration studies, XRPD ([3]; Medium water activity (0.572)): slight changes; also recorded: Small change | % Change [4, 5]: 0.11% | Area % (main band) [4, 5]: 98.97% | % Change [4, 6]: −0.02% | Area % (main band) [4, 6]: 99.10% | degradation observed ([4]; Hydrolytic (humidity), 75% RH, 55° C., 14 days): Minimal degradation | Peak Purity ([4]; Hydrolytic (humidity), 14 days): Pass | % Change [4, 7]: −0.19% | Area % (main band) [4, 7]: 99.03% | % Change [4, 8]: −0.25% | Area % (main band) [4, 8]: 98.93% | degradation observed [4, 8]: Minimal degradation | Peak Purity ([4]; Hydrolytic, Acid, 14 days): Pass | % Change [4, 9]: −0.19% | Area % (main band) [4, 9]: 99.03% | % Change [4, 10]: −0.25% | Area % (main band) [4, 10]: 98.93% | degradation observed [4, 10]: Minimal degradation | Peak Purity ([4]; Hydrolytic, Base, 14 days): Pass | % Change [4, 11]: 1.36% | Area % (main band) [4, 11]: 97.52% | Area % (main band) ([4]; Oxidative, 3% H2O2, ambient temperature, 14 days): 97.30% | Peak Purity ([4]; Oxidative, 14 days): Pass | % Change [4, 12]: −0.05% | Area % (main band) [4, 12]: 99.13% | % Change [4, 13]: −0.05% | Area % (main band) [4, 13]: 99.13% | Peak Purity ([4]; Photolytic, 3X ICH): Pass | degradation observed ([4]; Photolytic, 3× ICH exposure): Minimal degradation | % Change [4, 14]: 0.42% | Area % (main band) [4, 14]: 98.71% | % Change [4, 15]: 0.10% | Area % (main band) [4, 15]: 99.03% | Area % (main band) ([4]; Solid Control (unstressed), 0 days): 99.08% | % Change [4, 16]: 0.24% | Area % (main band) [4, 16]: 98.84% | % Change [4, 17]: 0.39% | Area % (main band) [4, 17]: 98.69% | % Change [4, 18]: 0.20% | Area % (main band) [4, 18]: 98.88% | % Change [4, 19]: 0.20% | Area % (main band) [4, 19]: 98.88% | degradation observed ([4]; Thermolytic, 80° C., 14 days): Minimal degradation | % Change [4, 20]: 0.12% | Area % (main band) [4, 20]: 98.96% | % Change [4, 21]: 0.05% | Area % (main band) [4, 21]: 99.03% | Peak Purity ([4]; Thermolytic, 14 days): Pass
